Assays:
Assay in all cases: relative viability (nuclei count vs DMSO), 5 days (fraction); higher = more cells survive
[1] = compound: CC1=CC=C(C=C1)C(=O)CN2C3=C(CCCC3)SC2=N [Pifithrin_alpha] + O=C(CCCCCCC(=O)Nc1ccccc1)NO [Vorinostat] (partner 1 µM)
Procedure, shortened: (§1)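 Relative viability was taken as the ratio of nuclei in treated wells to nuclei in vehicle wells. Lung cancer cell lines in 1536-well plates received compounds by pin tool one day after seeding, either one drug alone or a fixed anchor-drug dose plus five library-drug doses (not always all listed) in √10 steps. Nuclei were counted on 4× images after 5 days of treatment, and values are medians of duplicate plates.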

[2] = compound: CNC(=O)c1ccccc1Sc1ccc2c(/C=C/c3ccccn3)n[nH]c2c1 [Axitinib] + O=C(CCCCCCC(=O)Nc1ccccc1)NO [Vorinostat] (partner 1 µM)
Procedure, shortened: as §1

[3] = compound: CC1=CC=C(C=C1)C(=O)CN2C3=C(CCCC3)SC2=N [Pifithrin_alpha] + CC1(C)CCC(c2ccc(Cl)cc2)=C(CN2CCN(c3ccc(C(=O)NS(=O)(=O)c4ccc(N[C@H](CCN5CCOCC5)CSc5ccccc5)c(S(=O)(=O)C(F)(F)F)c4)cc3)CC2)C1 [Navitoclax] (partner 0.5 µM)
Procedure, shortened: as §1

Cell Line | relative viability ([1]; first compound 1 µM) | relative viability ([1]; first compound 3.162 µM) | relative viability ([1]; first compound 10 µM) | relative viability ([1]; first compound 31.62 µM) | relative viability ([1]; first compound 100 µM) | relative viability ([2]; first compound 0.005 µM) | relative viability ([2]; first compound 0.01581 µM) | relative viability ([2]; first compound 0.05 µM) | relative viability ([2]; first compound 0.1581 µM) | relative viability ([2]; first compound 0.5 µM) | relative viability ([3]; first compound 1 µM) | relative viability ([3]; first compound 3.162 µM) | relative viability ([3]; first compound 10 µM) | relative viability ([3]; first compound 31.62 µM) | relative viability ([3]; first compound 100 µM)
LK-2 | 0.29 | 0.257 | 0.255 | 0.256 | 0.353 | 0.343 | 0.292 | 0.209 | 0.301 | 0.232 | 0.862 | 1 | 0.749 | 0.534 | 0.997
LOU-NH91 | 0.8 | 0.868 | 0.821 | 0.597 | 0.739 | 0.966 | 0.765 | 1.01 | 0.875 | 0.939 | 0.502 | 0.576 | 0.643 | 0.409 | 0.517
LU99A | 0.491 | 0.646 | 0.373 |  | 0.463 | 0.514 | 0.472 | 0.56 | 0.465 | 0.409 | 0.823 | 0.782 | 0.874 |  | 0.892
LXF-289 | 0.718 | 0.805 | 0.79 | 0.662 | 0.782 | 0.777 | 0.74 | 0.791 | 0.716 | 0.732 | 0.984 | 1.01 | 0.96 | 0.793 | 0.901
NCI-H23 | 0.457 | 0.4 | 0.604 | 0.343 | 0.584 | 0.644 | 0.51 | 0.674 | 0.583 | 0.667 | 0.797 | 0.857 | 0.889 | 0.736 | 0.729
NCI-H322M | 0.807 | 0.811 | 0.802 | 0.788 | 0.845 | 0.908 | 0.836 | 0.827 | 0.767 | 0.962 | 1.17 | 1.35 | 1.27 | 1.22 | 1.33
NCI-H358 | 0.733 | 0.708 | 0.867 | 0.344 | 0.545 | 0.698 | 0.675 | 0.689 | 0.573 | 0.726 |  |  |  |  | 
NCI-H441 | 0.766 | 0.735 | 0.876 |  | 0.931 | 0.78 | 0.659 | 0.855 | 0.627 | 0.911 | 0.652 | 0.813 | 0.587 | 0.481 | 0.831
NCI-H460 | 0.797 | 0.397 | 0.182 | 0.0968 | 0.178 | 0.758 | 0.772 | 0.734 | 0.732 | 0.914 | 1.41 | 0.989 | 0.989 |  | 0.933
NCI-H520 | 0.641 | 0.954 | 0.716 | 0.678 | 0.772 | 0.797 | 0.678 | 0.686 | 0.691 | 0.801 | 1.11 | 1.32 | 1.16 | 0.94 | 1.12
NCI-H522 | 0.777 | 0.992 | 0.993 | 0.759 | 0.919 | 0.919 | 0.909 | 0.863 | 0.855 | 0.702 |  |  |  |  | 
NCI-H596 | 0.594 | 0.603 | 0.603 | 0.585 | 0.65 | 0.764 | 0.627 | 0.576 | 0.558 | 0.575 | 0.844 | 0.891 | 0.9 | 0.88 | 1.13
NCI-H647 | 0.514 | 0.565 | 0.592 | 0.482 | 0.53 | 0.63 | 0.71 | 0.572 | 0.548 | 0.605 | 0.814 | 1.07 | 0.86 |  | 1.03
NCI-H661 | 0.8 | 0.805 | 0.788 | 0.662 | 0.771 | 0.79 | 0.861 | 0.776 | 0.779 | 0.873 |  |  |  |  | 
NCI-H727 | 0.461 | 1.18 | 1.14 | 0.777 | 1.35 | 1.16 | 1.33 | 1.16 | 1.35 | 1.21 | 0.356 | 0.412 | 0.307 | 0.244 | 0.271
NCI-H838 | 0.593 | 0.591 | 0.555 | 0.567 | 0.525 | 0.814 | 0.725 | 0.792 | 0.707 | 0.752 | 1.14 | 1.06 | 1 | 0.833 | 0.882
NCI-H1299 |  |  |  |  |  |  |  |  |  |  | 1.07 | 1.08 | 1 | 0.952 | 1
NCI-H1355 | 0.606 | 0.483 | 0.429 | 0.376 | 0.479 | 0.661 | 0.575 | 0.69 | 0.604 | 0.542 | 0.812 | 0.675 | 0.692 | 0.556 | 0.563
NCI-H1395 |  | 0.662 | 0.723 |  | 0.661 | 0.706 | 0.529 | 0.709 | 0.639 | 0.649 |  | 1.15 | 1.34 | 0.604 | 1.31
NCI-H1437 | 0.78 | 0.619 | 0.565 | 0.468 | 0.356 | 0.942 | 0.85 | 0.86 | 0.876 | 0.78 | 1.25 | 1.16 | 1.13 | 0.784 | 0.775
NCI-H1648 | 0.523 | 0.473 | 0.378 | 0.347 | 0.421 | 0.37 | 0.514 | 0.316 | 0.34 | 0.363 |  |  |  |  | 
NCI-H1650 | 0.527 | 0.596 | 0.332 | 0.382 | 0.373 | 0.699 | 0.616 | 0.694 | 0.5 | 0.754 | 1.31 | 1.15 | 0.973 | 0.675 | 0.865
NCI-H1703 |  |  |  |  |  |  |  |  |  |  | 1.34 | 0.99 | 1.1 | 0.674 | 1.12
NCI-H1792 |  |  |  |  |  |  |  |  |  |  | 0.438 | 0.753 | 0.339 | 0.325 | 0.529
NCI-H2342 | 0.746 | 0.632 | 0.769 | 0.815 | 0.741 | 0.98 | 0.784 | 0.666 | 0.665 | 0.72 |  |  |  |  | 
SW 900 | 0.527 | 0.277 | 0.432 | 0.36 | 0.377 | 0.51 |  | 0.434 | 0.472 | 0.829 |  |  |  |  | 

Source: the supplement of paper PMC10307832
